In patent US20130245355A1, “3-HETARYL-SUBSTITUTED PYRROLO[2,3 B]PYRIDINE DERIVATIVES AS PDK1 INHIBITORS” (MERCK PATENT GMBH, priority 2010, published 2013):

Target: T1, PDK1 (Homo sapiens, UniProt O15530)
T1 construct: His6 (N)
T1 sequence (O15530 51-556 limits assumed): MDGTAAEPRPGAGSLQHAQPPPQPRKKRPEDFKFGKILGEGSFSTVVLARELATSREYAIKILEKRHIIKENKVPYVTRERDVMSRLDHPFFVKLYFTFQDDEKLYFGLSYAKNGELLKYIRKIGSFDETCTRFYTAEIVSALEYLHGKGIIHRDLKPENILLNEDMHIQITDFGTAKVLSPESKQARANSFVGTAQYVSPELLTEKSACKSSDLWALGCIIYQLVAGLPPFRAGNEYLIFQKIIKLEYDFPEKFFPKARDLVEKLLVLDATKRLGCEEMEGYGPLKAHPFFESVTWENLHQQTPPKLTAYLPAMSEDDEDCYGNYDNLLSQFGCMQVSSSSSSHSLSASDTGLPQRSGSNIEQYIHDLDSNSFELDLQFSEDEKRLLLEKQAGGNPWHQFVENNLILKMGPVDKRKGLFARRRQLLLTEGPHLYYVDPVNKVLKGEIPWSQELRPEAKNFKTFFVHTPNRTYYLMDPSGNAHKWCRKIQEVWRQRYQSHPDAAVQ
Assay: Test for the inhibition of PDK1 (flashplate, 33P-ATP)
Conditions: His6-PDK1 (1-50) 3.4 nM, 4 μM ATP, 30° C., 60 min; read-out: IC50 [PDK1] biochemical
Description: The experimental batches are carried out in a flashplate system with 384 wells/microtitration plate.
In each case, the PDK1 sample His6-PDK1 (1-50) (3.4 nM), the PDK1 substrate biotin-bA-bA-[…] (400 nM), 4 μM ATP (with 0.2μ Ci of ^33P-ATP/well) and the test substance in 50 μl of conventional experimental solution per well are incubated at 30° C. for 60 min. The test substances are employed in corresponding concentrations (if desired in a dilution series). The control is carried out without test substance. The reaction is stopped using standard methods and washed. The activity of the kinase is measured via the incorporated radioactivity in top count. In order to determine the non-specific kinase reaction (blank value), the experimental batches are carried out in the presence of 100 nM staurosporin.
The radioactivity (decompositions per minute) of the blank value (no use of test substance in the presence of staurosporin) is subtracted from all other radioactivity values. The controls (kinase activity without test substance) are set equal to 100 percent and all other radioactivity values (after subtracting the blank value) are expressed set in relation thereto (for example in % of the control).
IC50 values (50% inhibition) are determined with the aid of statistics programmes, such as, for example, RS1.

SMILES | IC50
Cn1cc(-c2cnc3[nH]cc(-c4cc([C@](C)(O)c5ccccc5F)on4)c3c2)cn1 (single isomer, unassigned) [A56] | 0.5 to 1000 nM
CC[C@](O)(c1cc(-c2c[nH]c3ncc(-c4cnn(C)c4)cc23)no1)c1ccccc1F (single isomer, unassigned) [A92] | 0.5 to 1000 nM
CC[C@@](O)(c1cc(-c2c[nH]c3ncc(-c4cnn(C)c4)cc23)no1)c1ccccc1F (single isomer, unassigned) [A93] | 0.5 to 1000 nM
Cn1cc(-c2cnc3[nH]cc(-c4nnc([C@H](O)c5ccccc5Cl)o4)c3c2)cn1 (single isomer, unassigned) [A131] | 0.5 to 1000 nM
Cn1cc(-c2cnc3[nH]cc(-c4noc(Cc5cccc(F)c5)n4)c3c2)cn1 [A8, 3-[5-(3-fluorobenzyl)-1,2,4-oxadiazol-3-yl]-5-(1-methyl-1H-pyrazol-4-yl)-1H-pyrrolo[2,3-b]pyridine] | 1000 to 10000 nM
Cn1cc(-c2cnc3[nH]cc(-c4noc(Cc5ccccc5F)n4)c3c2)cn1 [A13] | 1000 to 10000 nM
Cn1cc(-c2cnc3[nH]cc(-c4noc(Cc5ccccc5)n4)c3c2)cn1 [A26] | 1000 to 10000 nM
Cn1cc(-c2cnc3[nH]cc(-c4n[nH]c(C(O)c5ccccc5)n4)c3c2)cn1 (centres unmarked) [A30] | 0.5 to 1000 nM
COC(C)(c1ccccc1)c1cc(-c2c[nH]c3ncc(-c4cnn(C)c4)cc23)nn1C (centres unmarked) [A73] | 1000 to 10000 nM
Cn1cc(-c2cnc3[nH]cc(-c4cc(C(C)(O)c5ccccc5)n(C)n4)c3c2)cn1 (centres unmarked) [A76] | 1000 to 10000 nM
CCOC(c1ccccc1)c1cc(-c2c[nH]c3ncc(-c4cnn(C)c4)cc23)n[nH]1 (centres unmarked) [A90] | 0.5 to 1000 nM
Cn1cc(-c2cnc3[nH]cc(-c4cc(C(C)(O)c5ccnnc5)on4)c3c2)cn1 (centres unmarked) [A98, 1-{3-[5-(1-methyl-1H-pyrazol-4-yl)-1H-pyrrolo[2,3-b]pyridin-3-yl]isoxazol-5-yl}-1-pyridazin-4-ylethanol] | 0.5 to 1000 nM
Cn1cc(-c2cnc3[nH]cc(-c4cc(C(O)(c5ccccc5)C5CCOCC5)[nH]n4)c3c2)cn1 (centres unmarked) [A101, {5-[5-(1-methyl-1H-pyrazol-4-yl)-1H-pyrrolo[2,3-b]pyridin-3-yl]-2H-pyrazol-3-yl}phenyl(tetrahydropyran-4-yl)methanol] | 0.5 to 1000 nM
Cn1cc(-c2cnc3[nH]cc(-c4cc(C(O)(c5ccccc5)C5CCOCC5)no4)c3c2)cn1 (centres unmarked) [A102] | 0.5 to 1000 nM
Cn1cc(-c2cnc3[nH]cc(-c4cc(C(O)(c5ccccc5)C5CCOCC5)on4)c3c2)cn1 (centres unmarked) [A103] | 0.5 to 1000 nM
CCN(CC)Cc1cc(-c2c[nH]c3ncc(-c4cnn(C)c4)cc23)no1 [A104] | 0.5 to 1000 nM
Cn1cc(-c2cnc3[nH]cc(-c4cc(C(O)c5ccccc5)nn4CCO)c3c2)cn1 (centres unmarked) [A106] | 1000 to 10000 nM
Cn1cc(-c2cnc3[nH]cc(-c4nnc([C@H](N)c5ccccc5)o4)c3c2)cn1 [A108, C—((R)—C-{5-[5-(1-methyl-1H-pyrazol-4-yl)-1H-pyrrolo[2,3-b]pyridin-3-yl]-1,3,4-oxadiazol-2-yl}-C-phenyl)methylamine] | 0.5 to 1000 nM
Cn1cc(-c2cnc3[nH]cc(-c4nnc([C@@H](N)c5ccccc5)o4)c3c2)cn1 [A109, C—((S)—C-{5-[5-(1-methyl-1H-pyrazol-4-yl)-1H-pyrrolo[2,3-b]-pyridin-3-yl]-1,3,4-oxadiazol-2-yl}-C-phenyl)methylamine] | 0.5 to 1000 nM
Cn1cc(-c2cnc3[nH]cc(-c4nnc(C5(c6ccnc(O)c6)CC5)o4)c3c2)cn1 [A111] | 0.5 to 1000 nM
CCC(N)(c1ccccc1)c1nnc(-c2c[nH]c3ncc(-c4cnn(C)c4)cc23)o1 (centres unmarked) [A114] | 1000 to 10000 nM
Cn1cc(-c2cnc3[nH]cc(-c4nnc(C(N)c5cccnc5)o4)c3c2)cn1 (centres unmarked) [A115] | 1000 to 10000 nM
Cn1cc(-c2cnc3[nH]cc(-c4nnc(C(C)(C)c5ccnnc5)o4)c3c2)cn1 [A121, 5-(1-methyl-1H-pyrazol-4-yl)-3-[5-(1-methyl-1-pyridazin-4-ylethyl)-1,3,4-oxadiazol-2-yl]-1H-pyrrolo[2,3-b]pyridine] | 1000 to 10000 nM
